Results reported in patent US20100160342A1, “Compositions of Topical Ocular Solutions to Deliver Effective Concentrations of Active Agent to the Posterior Segment of the Eye” (ALCON RESEARCH, LTD., priority 2008, published 2010).

Legend:
[1] = Text: Another preferred criterion for improving the bioavailability of the active agent is establishing a pH range for the composition which provides the highest solubility. It will be apparent to the skilled artisan that the pH of the composition will depend upon the concentration and the salt form of the active agent in the composition.
[2] = Ocular comfort / stinging upon topical administration to the eye
Text: It is well known that acidic solutions alone cause ocular stinging.

[3] = in vivo

solubility versus theoretical solubility predicted by the Handerson-Hasselbach relationship [1]	ocular stinging / comfort ([2]; ophthalmic solution administered topically to the eye)	aqueous humor (AqH) drug level, 0.5% HPMC versus 0% HPMC [3]	retina drug level, 0.5% HPMC versus 0% HPMC [3]	ocular stinging / comfort ([2]; in vivo)	Molecule	solubility compared with the free base [1]
does not exhibit this solubility dip	more comfortable	~3 fold	0.5% HPMC ˜0% HPMC		O=C1[C@@H]2[C@H]3CC[C@H](C3)[C@@H]2C(=O)N1CCCCN1CCN(c2ncccn2)CC1 [Tandospirone, tandospirone]	
decreased substantially				stings	tandospirone citrate [tandospirone citrate salt]	dramatically less than that of the free base
